Measured values as given in patent US7033829B2, “Method to inhibit cell growth using oligonucleotides” (Trustees of Boston University, priority 2000, dated 2006).
Oligonucleotides are written 5' to 3', each unit as a sugar letter and its base; * is a phosphorothioate linkage, no mark a phosphodiester; rarer units and linkages stand in square brackets, end groups in braces. Plain capitals give the bases only. d = 2'-deoxy (DNA); {P} = phosphate

Assays:
[1] = system: Human squamous carcinoma cell line SCC12F cells; assay: Cell growth / cell yield of SCC12F cells (Coulter counter); format: cell-based; details: for reduction of cell number: after 2 days, FIG. 14
Description: Human squamous carcinoma cell line SCC12F cells were maintained in primary keratinocyte medium (300 ml DME, 100 ml F-12 nutrient supplement, 50 ml 10× adenine, 50 ml fetal bovine serum, 5 ml penicillin/streptomycin stock, and 0.5 ml of 10 μg/ml epidermal growth factor and hydrocortisone to final concentration of 1.4 μg/ml) and dosed with either water (diluent), 100 μM pTpT (T2, Midland Certified Reagent Company, Midland, Tex.) or 100 μM pdApdA (A2). Cells were harvested before dosing (day 0), and 1, 3, 4, and 5 days after dosage, and were counted by Coulter™ counter. After harvesting, the cells were processed for total RNA isolation and were analyzed by Northern blot. Addition of a control deoxyadenine dinucleotide (pdApdA), a compound very similar to pTpT but not readily dimerized by UV irradiation, and therefore rarely excised during the course of UV-induced DNA repair, has no effect.
In a second experiment, SCC12F cells were cultured as described above. Two or three days after seeding, the preconfluent cultures were given fresh medium supplemented with either 100 μM T2 or diluent as a control. Cells were collected daily by trypsinization and counted by Coulter™ counter. The cell yield in cultures treated with T2 was reduced by […] compared to that of paired control cultures after five days (FIG. 2). This corresponds to 2.3 population doublings in this time for control cells, compared with 1 doubling for T2-treated cells.
pTpT was previously found to inhibit cell cycle progression, at least in part through activation of p53 and subsequent upregulation of the cyclin dependent kinase inhibitor p21. Cultures of the human keratinocyte line SCC12F were treated with pTpT, SEQ ID NO: 1, SEQ ID NO: 6 or diluent alone as a negative control, collected and counted 48 hours later and processed for northern blot analysis of p21 mRNA expression. […] Thus, the sequences of the present invention activate p53 and inhibit cell proliferation similar to the effect of pTpT.
Exposure of keratinocytes to UVB irradiation affects the expression of genes involved in cell cycle arrest, DNA repair and cytokine production. Single-stranded oligonucleotides sharing sequence homology with the telomere 3′ overhang, when introduced into cells, mimic these UV effects. To identify other genes that may be similarly modulated, cells of keratinocyte origin (SCC12F; a human epidermal squamous cell carcinoma line provided by Dr. James Rheinwald of Harvard University) were exposed to solar simulated irradiation (SSR) (20 mJ/cm^2, measured at 285±5 nm), to an 11-base oligonucleotide (pGTTAGGGTTAG; SEQ ID NO:5) homologous to the telomere overhang (T-oligo), or to a complementary sequence as control [pCTAACCCTAAC; (SEQ ID NO:9) control oligonucleotide]. […] These are mitochondrial-transcribed genes whose encoded proteins participate in cellular respiration.

telomere length = assay: Mean telomere length in fibroblasts; format: cell-based, human; details: for MTL values: 40 μM, 5 days (diluent 10.59)
Description: Cells were plated at a density of 180,000 cells/ml in RPMI 1640 medium supplemented with 3% FBS. Cells were treated with 40 μM of either of the oligonucleotides for 72 hours. Cells were then collected, washed and fixed for 30 minutes in 4% paraformaldehyde and then permeabilized with 0.1% Triton X-100 for 2 minutes. The TUNEL assay was carried out with components and instructions of the In Situ Cell Death Detection Kit using fluorescein-labeled dUTP from Boehringer Mannheim. TUNEL-positive cells were detected by FACS analysis and confocal microscopy. Cellular Uptake of Oligonucleotides For confocal analysis, Jurkat cells were plated on Permanox chamber slides (Lab-Tek, Naperville, Ill.) and treated for 4 hours with fluorescein phosphoramidite (FAM)-labeled oligonucleotides (Research Genetics, Inc., Huntsville, Ala.). Adherent cells were fixed in 4% paraformaldehyde in PBS, stained with propidium iodide (PI) to identify nuclei, mounted with Slowfade reagent (Molecular Probes, Eugene, Oreg.), covered with a coverslip and stored at 4° C. in the dark. Uptake of the oligonucleotides was assessed in 5–10 μm sections with a Carl Zeiss LSM 510 confocal laser microscope. Computer images assign green to the FAM-oligonucleotides, red to PI, and yellow to co-localization of the signals. FACS analysis was performed on Jurkat cells identically treated with the FAM-oligonucleotides for 4 hours, then fixed in 0.5 ml of 4% paraformaldehyde overnight at 4° C. Fluorescence was measured on the FL-1 channel. Western Blot Analysis and Antibodies Western blot analysis was performed as previously described [Eller, M. S., et al., (1996), Proc Natl Acad Sci USA 93, 1087–1092]. Antibody Ab-6 (DO-1 clone, Oncogene Research Products, Cambridge, Mass.) detected p53; antibody KH95 (Santa Cruz Biotechnology, Inc., Santa Cruz, Calif.) detected E2F1; antibody Ab-4 (Oncogene Research products) detected p73. Phospho-p53 (serine 15) was detected using the #9284 polyclonal antibody and phospho-p95/Nbs1 (serine 343) was detected by a phospho-p95/Nbs1-specific polyclonal antibody, both antibodies from Cell Signaling Technology (Beverly, Mass.). p95/Nbs1 antibody (#NB-100-143, Novus Biologicals, Littleton, Colo.) and an actin antibody (I-19, Santa Cruz Biotechnology, Santa Cruz, Calif.) were also used. […] After the indicated times, total protein was collected and analyzed by 8% PAGE and western blot using a polyclonal antibody to p95/Nbs1 (#NB-100-143, Novus Biologicals, Littleton, Colo.). […] Telomere length was determined essentially as described by van Steensel and de Lange (van Steensel, B. and T. de Lange. 1997, Nature 385: 740–743) using the Telo TAGGG Telomere Length Assay from Roche Molecular Biochemicals (Indianapolis, Ind.) and the protocol supplied by the manufacturer. […]

[2] = system: normal neonatal human fibroblasts; assay: FACS analysis of normal neonatal fibroblasts; format: cell-based; details: 40 μM; for S-phase checkpoint: within 24 hours
Description: The averages and standard deviations presented in FIGS. 32A–32D were determined from triplicate samples. One representative experiment of three is presented. […] Control 11-base oligonucleotides complementary (11mer-2) or unrelated (11mer-3) to the telomere overhang had no effect on the cells.

## pGAGTATGAG (DNA, 5' {P}, backbone not given here) [SEQ ID NO: 1]
[1]
  reduction of cell number: approximately 50%

## pCTAACCCTAAC (DNA, 5' {P}, backbone not given here) [SEQ ID NO: 9, reference compound]
Telomere length
  MTL values: 10.45 kilobases
[2]
  S-phase checkpoint: had no effect

## pGTTAGGGTTAG (DNA {P}-dGdTdTdAdGdGdGdTdTdAdG) [SEQ ID NO: 5]
Telomere length
  MTL values: 12.25 kilobases
Telomere length; 5-day experiment
  increase in MTL: approximately 20%
[2]; up to 72 hours
  apoptotic cells: no apoptotic cells were detected
[2]
  S-phase checkpoint: activation of an S-phase checkpoint
[1]; Example 27
  cellular proliferation: substantially inhibited cellular proliferation

## pGATCGATCGAT (DNA {P}-dGdAdTdCdGdAdTdCdGdAdT) [SEQ ID NO: 10, reference compound]
Telomere length
  MTL values: 10.22 kilobases
[2]
  S-phase checkpoint: had no effect

## thymidine dinucleotide [pTpT]
[1]; 100 μM, after five days
  cell yield reduced compared to paired control cultures: 75%
[1]; 100 μM, days 1, 3, 4, 5 after dosage
  cell growth rate: marked decreases in cell growth rate
[1]; 100 μM, five days (control 2.3)
  population doublings: 1
[1]
  reduction of cell number: 40%
